{"source": "PubChem BioAssay AID2060892", "about": "(Molecular Pharmacology Branch, DTP, NCI, 2025)", "tested_on": "HOP-62 complex spheroids with HUVEC/MSC, viability", "test": "Anticancer human tumor HOP-62 cell line growth inhibition [RAS];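 on all read-outs here: spheroids exposed to agents for seven days before readout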;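 on viability, T/C: 100% = DMSO vehicle control viability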", "conditions": "for IC50: curve of first compound; for viability, T/C: stronger effect = lower value", "description": "RAS pathway inhibitors in Combinations in Complex Spheroids\nA high-throughput screen of multi-cell type tumor spheroids was designed to identify active combinations of RAS pathway inhibitors and targeted small molecules. Complex spheroids include a stromal component modeled by human endothelial cells (HUVEC) and fibroblasts modeled by human mesenchymal stem cells (MSCs). The concentration ranges selected for each drug and investigational agent were based upon clinically achievable concentrations if the clinical Cmax of the agent was known.\nCompounds. The drugs and investigational agents: abemaciclib (NSC768073), cobimetinib (NSC768068), divarasib (GDC6063, NSC841802), docetaxel (NSC628503), GDC-1971 (RLY-1971, NSC841576), gemcitabine (NSC613327), inavolisib (NSC800729), ipatasertib (NSC767898), KB-0742 (NSC834161), MRTX-1133 (NSC836407), osimertinib (NSC779217), RMC-4630 (NSC839698), RMC-6236 (NSC851965), RMC-6291 (NSC852671), Ro-3306 (NSC812927), sapanisertib (NSC764658), SN-38 (NSC673596), staurosporine (NSC755774), SY5609 (NSC837396), and tovorafenib (DAY101, NSC766906), were obtained from the National Cancer Institute (NCI) Developmental Therapeutics Program Chemical Repository. The FDA-approved anticancer drug set is available from the NCI Developmental Therapeutics Program. […] The stock solutions were prepared in dimethyl sulfoxide (DMSO, Sigma-Aldrich, St. Louis, MO, cat. D2650) at 800-fold the tested concentration and stored at -70 degrees C prior to their use. All drugs and investigational agents were tested over a range starting from a high concentration at or near the clinical Cmax and decreasing in half-log increments. If the clinical Cmax for an agent had not been determined, the highest concentration tested was 10 microM.\nCell Culture. All cells were maintained in an incubator at 37 degrees C and 5% CO2 with 95% humidity. The PDC lines were cultured according to standard operating procedures established by the NCI PDMR. All PDCs were thawed and cultured in Matrigel-coated flasks prepared with a working solution of 1X Ham's F-12 nutrient mix, without supplementation (Invitrogen, Waltham, MA, cat. 11765054), 100 U/mL penicillin-streptomycin (Invitrogen, cat. 15140122), and 2.5% Matrigel (Corning Inc., Corning, NY, cat. 354248) for the first three passages. The 362531-283-R-J2-PDC and 782815-120-R-J1-PDC lines were cultured in 6C/Colon 1B media, which includes advanced DMEM/F-12 (Thermo Fisher Scientific, cat. 12634028), 10 mM HEPES (Thermo Fisher Scientific, cat. 15630080), 1X GlutaMAX supplement (Thermo Fisher Scientific, cat. 35050061), 0.1 mg/mL primocin (InvivoGen, San Diego, CA, cat. ant-pm-2), 10% defined fetal bovine serum, heat inactivated (HyClone Laboratories Inc., Logan, UT, cat. SH30070.03HI), 50% L-WRN conditioned media (ATCC, cat. CRL-3276), 1.25 mM N-Acetyl-L-cysteine (Sigma-Aldrich, cat. A9165), 10 mM nicotinamide (Sigma-Aldrich, cat. N0636), 1X B-27 supplement (Thermo Fisher Scientific, cat. 17504044), 1X N-2 supplement (Thermo Fisher Scientific, cat. 17502048), 50 ng/mL human EGF (Thermo Fisher Scientific, cat. PHG0311), and 10 microM Y-27632 dihydrochloride (Tocris Bioscience, cat. 1254). The K12877-001-R-J1-PDC line was cultured in 6I media, which includes all 6C/Colon 1B media plus 10 ng/mL human FGF-10 (PeproTech, cat. 100-26), 1 ng/mL human FGF-2 (PeproTech, cat. 100-18B), 1 µM prostaglandin E2 (Tocris Bioscience, cat. 2296), […] hydrocortisone (Sigma-Aldrich, cat. H4001), and […] bovine insulin (Sigma-Aldrich, cat. I6634). The K86415-001-R-J1-PDC line was cultured in 6D media, which includes all 6C/Colon 1B media components minus the L-WRN conditioned media. The 485176-168-R4-J1-PDC was cultured in PANC media, which includes all 6C/Colon 1B media plus 100 ng/mL human FGF-10 (PeproTech, cat. 100-26), 500 nM SB-431542 (Selleckchem, cat. S1067), and 10 nM gastrin (Tocris Bioscience, cat. 3006). […]", "data": [{"smiles": "CC(Nc1ccc2c(c1)OCCn1cc(N3C(=O)OCC3C(F)F)nc1-2)C(N)=O", "note": "(configuration not stated) + CCn1c(-c2cccnc2C(C)OC)c2c3cc(ccc31)N1CCOC(CC(NC(=O)C(C(C)C)N(C)C(=O)C3(F)CCN(C(=O)C#CC(C)(C)N(C)C)CC3)C(=O)N3CCCC(N3)C(=O)OCC(C)(C)C2)C1", "values": [{"measurement": "IC50", "setting": "second compound 0.000949 µM", "value": 0.659, "unit": "µM"}, {"measurement": "IC50", "setting": "second compound 0.003 µM", "value": 0.649, "unit": "µM"}, {"measurement": "IC50", "setting": "second compound 0.00949 µM", "value": 0.326, "unit": "µM"}, {"measurement": "IC50", "setting": "second compound 0.03 µM", "value": 0.26, "unit": "µM"}, {"measurement": "IC50", "setting": "second compound 0.0949 µM", "value": 0.182, "unit": "µM"}, {"measurement": "IC50", "setting": "second compound 0.3 µM", "value": 0.152, "unit": "µM"}, {"measurement": "viability, T/C", "setting": "second compound 0.000949 µM, first compound 0.0316 µM", "value": 99.7, "unit": "%"}, {"measurement": "viability, T/C", "setting": "second compound 0.000949 µM, first compound 0.1 µM", "value": 75.4, "unit": "%"}, {"measurement": "viability, T/C", "setting": "second compound 0.000949 µM, first compound 0.316 µM", "value": 45.1, "unit": "%"}, {"measurement": "viability, T/C", "setting": "second compound 0.000949 µM, first compound 1 µM", "value": 54.2, "unit": "%"}, {"measurement": "viability, T/C", "setting": "second compound 0.000949 µM, first compound 3.16 µM", "value": 50.6, "unit": "%"}, {"measurement": "viability, T/C", "setting": "second compound 0.000949 µM, first compound 10 µM", "value": 23.9, "unit": "%"}, {"measurement": "viability, T/C", "setting": "second compound 0.003 µM, first compound 0.0316 µM", "value": 87, "unit": "%"}, {"measurement": "viability, T/C", "setting": "second compound 0.003 µM, first compound 0.1 µM", "value": 85.9, "unit": "%"}, {"measurement": "viability, T/C", "setting": "second compound 0.003 µM, first compound 0.316 µM", "value": 42.3, "unit": "%"}, {"measurement": "viability, T/C", "setting": "second compound 0.003 µM, first compound 1 µM", "value": 50.9, "unit": "%"}, {"measurement": "viability, T/C", "setting": "second compound 0.003 µM, first compound 3.16 µM", "value": 36.6, "unit": "%"}, {"measurement": "viability, T/C", "setting": "second compound 0.003 µM, first compound 10 µM", "value": 19.6, "unit": "%"}, {"measurement": "viability, T/C", "setting": "second compound 0.00949 µM, first compound 0.0316 µM", "value": 99.3, "unit": "%"}, {"measurement": "viability, T/C", "setting": "second compound 0.00949 µM, first compound 0.1 µM", "value": 60.1, "unit": "%"}, {"measurement": "viability, T/C", "setting": "second compound 0.00949 µM, first compound 0.316 µM", "value": 51.9, "unit": "%"}, {"measurement": "viability, T/C", "setting": "second compound 0.00949 µM, first compound 1 µM", "value": 46.9, "unit": "%"}, {"measurement": "viability, T/C", "setting": "second compound 0.00949 µM, first compound 3.16 µM", "value": 32.1, "unit": "%"}, {"measurement": "viability, T/C", "setting": "second compound 0.00949 µM, first compound 10 µM", "value": 22.4, "unit": "%"}, {"measurement": "viability, T/C", "setting": "second compound 0.03 µM, first compound 0.0316 µM", "value": 124, "unit": "%"}, {"measurement": "viability, T/C", "setting": "second compound 0.03 µM, first compound 0.1 µM", "value": 59.4, "unit": "%"}, {"measurement": "viability, T/C", "setting": "second compound 0.03 µM, first compound 0.316 µM", "value": 55.2, "unit": "%"}, {"measurement": "viability, T/C", "setting": "second compound 0.03 µM, first compound 1 µM", "value": 42.3, "unit": "%"}, {"measurement": "viability, T/C", "setting": "second compound 0.03 µM, first compound 3.16 µM", "value": 25.6, "unit": "%"}, {"measurement": "viability, T/C", "setting": "second compound 0.03 µM, first compound 10 µM", "value": 22.8, "unit": "%"}, {"measurement": "viability, T/C", "setting": "second compound 0.0949 µM, first compound 0.0316 µM", "value": 103, "unit": "%"}, {"measurement": "viability, T/C", "setting": "second compound 0.0949 µM, first compound 0.1 µM", "value": 53.9, "unit": "%"}, {"measurement": "viability, T/C", "setting": "second compound 0.0949 µM, first compound 0.316 µM", "value": 43.9, "unit": "%"}, {"measurement": "viability, T/C", "setting": "second compound 0.0949 µM, first compound 1 µM", "value": 37, "unit": "%"}, {"measurement": "viability, T/C", "setting": "second compound 0.0949 µM, first compound 3.16 µM", "value": 20.1, "unit": "%"}, {"measurement": "viability, T/C", "setting": "second compound 0.0949 µM, first compound 10 µM", "value": 19, "unit": "%"}, {"measurement": "viability, T/C", "setting": "second compound 0.3 µM, first compound 0.0316 µM", "value": 58.5, "unit": "%"}, {"measurement": "viability, T/C", "setting": "second compound 0.3 µM, first compound 0.1 µM", "value": 49.8, "unit": "%"}, {"measurement": "viability, T/C", "setting": "second compound 0.3 µM, first compound 0.316 µM", "value": 47.9, "unit": "%"}, {"measurement": "viability, T/C", "setting": "second compound 0.3 µM, first compound 1 µM", "value": 30.2, "unit": "%"}, {"measurement": "viability, T/C", "setting": "second compound 0.3 µM, first compound 3.16 µM", "value": 25.2, "unit": "%"}, {"measurement": "viability, T/C", "setting": "second compound 0.3 µM, first compound 10 µM", "value": 19.1, "unit": "%"}]}]}
